Assay results reported in the METLIN SMRT retention time set (Domingo-Almenara et al. 2019).

Test: gradient 5% acetonitrile 3 min, to 50% in 2 min, to 85% in 15 min, held 3 min, 100 µL/min
Settings: column: Zorbax Extend-C18 2.1 x 50 mm; eluents: water / acetonitrile, 0.1% formic acid
Procedure, shortened: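 The system's dead and dwell volumes were 40 μL and 900 μL, with a Zorbax Extend-C18 column (2.1 × 50 mm, 1.8 μm) run at 100 μL/min in water and acetonitrile containing 0.1% formic acid each. Pure standards were analyzed in mixtures of ~100 molecules by HPLC–quadrupole time-of-flight mass spectrometry in positive and negative ionization mode. Retention time was assigned from computationally picked, manually inspected adduct peaks.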

| RP-LC retention time | Structure (SMILES) |
| --- | --- |
| 830 s | O=C(NCc1ccccc1Cl)c1ccc2c(cnn2CC(=O)N2CCCCCC2)c1 |
| 644 s | COc1ccc(-c2ncc3c(n2)CCN(C(=O)Nc2ccc(C)cc2C)C3)cc1 |
| 899 s | O=C(c1cc2ccccc2[nH]1)N1CCCn2nc(-c3cccs3)cc2C1 |
| 876 s | CC(C)Cn1ccc2c(cc(C(=O)Nc3cc(F)ccc3F)n2C)c1=O |
| 756 s | CCCCNC(=O)C1CCCN(C(=O)c2[nH]c(C)c(C(=O)OCC)c2C)C1 (stereo unspecified) |
| 647 s | O=C(Nc1cccc(-c2ccc(N3CCCC3)nn2)c1)c1c(F)cccc1F |
| 939 s | CN1C(=O)C2CCCCN2c2ccc(C(=O)NCCCc3ccccc3)cc21 (stereo unspecified) |
| 742 s | O=C1Cc2cc(NC(=O)Nc3ccc(Cl)c(Cl)c3)ccc2N1 |
| 746 s | Cn1c(C(=O)NCCCN2CCCCC2)cc2c(-c3cccs3)nn(-c3ccccc3)c21 |
| 764 s | CC(NC(=O)C(C)n1c2ccccc2c2cnn(C)c(=O)c21)C(=O)N1CCCCC1 (stereo unspecified) |
| 662 s | O=C(Nc1ccc(-n2cnnn2)cc1)C1CC(=O)N(c2ccccc2)C1 (stereo unspecified) |
| 632 s | CC1CCC(NC(=O)C2CCCN(C(=O)c3cc(-c4ccncc4)n[nH]3)C2)CC1 (stereo unspecified) |
| 688 s | COc1ccccc1CC(=O)NC1CCN(c2cc(-c3ccccc3)[nH]n2)C1 (stereo unspecified) |
| 827 s | CCCSCCCNC(=O)c1cc2n(n1)CCCN(Cc1ccc(F)cc1)C2=O |
| 884 s | O=C(COc1ccccc1)N1CCN(Cc2ccccc2)c2ncccc21 |
| 869 s | Cc1ccccc1CN1N=C(C(=O)N2CCCC2)S(=O)(=O)c2ccccc21 |
| 1030 s | O=C1CCC(=O)N1CCc1c[nH]c2ccc(OCc3ccccc3)cc12 |
| 792 s | CC(C)n1cnc(S(=O)(=O)N2CCCC(C(=O)Nc3ccc(F)cc3F)C2)c1 (stereo unspecified) |
| 1050 s | O=C(NCCc1c[nH]c2ccccc12)c1noc2c1CCc1sccc1-2 |
| 1120 s | O=C(Cc1cccs1)N1CCc2cc(-c3csc(C4CC4)n3)ccc21 |
| 1270 s | CCOC(=O)c1cc(C2CC2)nc2c1c(=O)n(Cc1ccc(Br)cc1F)c(=O)n2C |
| 680 s | Cc1cccn2cc(-c3ccc(NC(=O)c4ncccn4)cc3)nc12 |
| 586 s | Cc1cccc(NC(=O)N2CCC(CCN)CC2)c1 |

| RP-LC retention time | Structure (SMILES) |
| --- | --- |
| 1330 s | Cc1ccc(Cl)cc1NS(=O)(=O)c1cc(-c2nc(C(C)(C)C)cs2)cs1 |
| 586 s | Cc1cnc(C2CCC2)n1CCNC(=O)c1cc(C2CC2)[nH]n1 |
| 1050 s | Cc1cc(C(=O)NCCc2c[nH]c3ccccc23)c2c(C)nn(-c3cccc(Cl)c3C)c2n1 |
| 946 s | Nc1ccccc1C(=O)NC(=O)Nc1ccc(Oc2ncc(Br)cn2)c(Cl)c1 |
| 661 s | O=C(c1csc(S(=O)(=O)N2CCC(C(=O)N3CCCC3)CC2)c1)N1CCCC1 |
| 632 s | Cc1csc(-c2ccc(N3CCN(C(=O)c4ccncc4)CC3)nc2)n1 |
| 568 s | Cc1cc(N2CCN(C)CC2)n2nc(CN3CCN(c4cccc(Cl)c4)CC3)nc2n1 |
| 744 s | O=C(Nc1cccn2c(C3CCC3)nnc12)c1ccc2c(c1)OCO2 |
| 644 s | CCCNC(=O)C1CCN(c2ccc(SCC(=O)NCc3ccccc3Cl)nn2)CC1 |
| 853 s | O=C(NCC1CCN(C(=O)Oc2ccccc2)CC1)C(=O)Nc1ccc2c(c1)OCCO2 |
| 779 s | COc1ccc(NC(=O)Cn2c(C)cc(-c3nnc(C4CC4)o3)c2C)cc1 |
| 1110 s | Cc1cc(-c2csc(S(=O)(=O)N(Cc3ccco3)C3CCCC3)c2)on1 |
| 577 s | CCc1cc(=O)n(CC(=O)NCCOC)c(N2CCOCC2)n1 |
| 679 s | O=C(NCCCN1CCc2ccccc2C1)c1sc2ncccc2c1-n1cccc1 |
| 1070 s | O=C1CC(c2noc(-c3ccccc3)n2)CN1c1ccc(F)c(Cl)c1 (stereo unspecified) |
| 1020 s | O=C(NCc1ccccc1)NC1CCN(c2nc3cccnc3n(Cc3ccccc3)c2=O)CC1 |
| 792 s | COCCN(Cc1ccco1)c1nc(-c2ccc(OC)cc2)nc2ccccc12 |
| 644 s | O=C(c1ccco1)N1CCC(n2c(-c3ccsc3)nc3cccnc32)C1 (stereo unspecified) |
| 660 s | CCOC(=O)CC(=O)Nc1cc2c(cc1N1CCOCC1)n(C)c(=O)n2C |
| 698 s | COCCCNC(=O)C1CCCN(C(=O)c2cccc(C(F)(F)F)c2)C1 (stereo unspecified) |
| 850 s | Cc1cc(C(=O)NC(C)c2ccccc2)n(-c2ccccc2)n1 (stereo unspecified) |
| 670 s | Cn1c(C2CCN(C(=O)Nc3ccc(Cl)cc3F)CC2)cc(=O)n2nccc12 |
| 1010 s | CCOC(=O)COC(=O)c1cn(-c2ccc(OC)cc2)c(=O)c2ccccc12 |

| RP-LC retention time | Structure (SMILES) |
| --- | --- |
| 647 s | O=C(NCc1ccc(Cl)cc1)C1CCN(c2cncnc2N2CCOCC2)CC1 |
| 1240 s | CCN1C(=O)COc2ccc(-c3noc(-c4ccc(Br)cc4)n3)cc21 |
| 689 s | CN(C)CCNC(=O)c1ccc2c(c1)N(Cc1ccccc1)CCS2 |
| 674 s | CC(C)CCNC(=O)C1CCN(c2cncnc2N2CCCCC2)CC1 |
| 993 s | CCOC(=O)c1ccccc1NC(=O)N1CCC(C(=O)NCc2csc(-c3ccccc3)n2)CC1 |
| 1000 s | Cc1noc(C)c1CCNC(=O)c1cc2c(-c3cccs3)nn(-c3ccccc3)c2n1C |
| 986 s | O=C(CSc1ccccn1)Nc1nc(-c2ccccc2)cs1 |
| 592 s | OC1(c2ccccn2)CCOC2(CCN(Cc3cccc(C(F)(F)F)c3)CC2)C1 (stereo unspecified) |
| 708 s | COCCN1CCCCc2cc(C(N)=O)sc21 |
| 746 s | Cc1nnc(SCC(=O)c2ccc3c(c2)OCCO3)s1 |
| 955 s | CC(C)NC(=O)c1ccc(OCC2CCCN(C(=O)Cc3cccc(F)c3)C2)cc1 (stereo unspecified) |
| 1250 s | Clc1cccc(-c2noc(Cc3nc(-c4ccc5c(c4)OCO5)cs3)n2)c1 |
| 612 s | CCc1nnc(-c2ccc(S(=O)(=O)N3CCN(CC(C)C)CC3)o2)o1 |
| 644 s | COc1cccc(N2CCN(C(=O)c3cn4ccccc4n3)CC2)c1 |
| 546 s | Cc1nc(C2CCCN2Cc2ccccc2C)n[nH]1 (stereo unspecified) |
| 940 s | COc1ccc(NC(=O)N2CCCC2c2nc(-c3ccc(F)cc3F)no2)cc1F (stereo unspecified) |
| 728 s | CC1CCN(S(=O)(=O)c2ccc3c(ccn3CCC(=O)N3CCN(c4ccccn4)CC3)c2)CC1 |
| 891 s | O=C(CCn1nnc2cc(-c3noc(C4CCCCC4)n3)ccc21)N1CCOCC1 |
| 764 s | CSc1ccc(NC(=O)COc2ccccc2)nn1 |
| 915 s | Cc1ccsc1C(=O)Nc1cnc(N2CCCCC2)nc1 |
| 711 s | CCCn1cnc2cc(-c3noc(C4CC(=O)N(c5ccccc5)C4)n3)ccc21 (stereo unspecified) |
| 605 s | CCc1ccc2nc(C)cc(C(=O)NC3CC3)c2c1 |
| 675 s | O=C(COc1ccccc1F)NCCn1nc(-c2ccco2)ccc1=O |

| RP-LC retention time | Structure (SMILES) |
| --- | --- |
| 712 s | CCOc1ccc(NC(=O)c2cnc(N3CCSCC3)nc2N)cc1 |
| 864 s | CC(C)COc1cc(=O)n2c(c1C(=O)NCC1CCCCC1)CCCCC2 |
| 832 s | Cc1ccccc1-c1noc(-c2cccn(CC(=O)NC3CCCC3)c2=O)n1 |
| 699 s | c1ccc2c(c1)nnn2-c1ccncc1 |
| 630 s | Cc1ccc(NC(=O)Cn2cnc(C)c(C)c2=O)cc1F |
| 813 s | Cc1ccc(N2C=C(C(=O)N3CCCC3)S(=O)(=O)c3ccccc32)cc1F |
| 497 s | CCn1nc(N2CCCC(N)C2)ccc1=O (stereo unspecified) |
| 751 s | CCSc1ccccc1C(=O)Nc1nnc(-c2ccsc2)o1 |
| 610 s | CCNC(=O)C1Cc2cc(C(F)(F)F)ccc2N2CCN(Cc3ccc(F)cc3)CC12 (stereo unspecified) |
| 918 s | COc1ccc(OC)c(CCNc2nc(-c3ccc(OC)c(OC)c3)no2)c1 |
| 872 s | O=C(NCCC1=CCCCC1)C1CCCN(c2ncnc3c2oc2ccccc23)C1 (stereo unspecified) |
| 652 s | Cc1ccc(CNC(=O)NCCn2cnc3cc(C(=O)NC4CCCC4)ccc32)cc1 |
| 931 s | O=C(NCCc1cccs1)c1ccc2ccnc(N3CCN(c4ccc(Cl)cc4)CC3)c2c1 |
| 841 s | Cc1ccc(NS(=O)(=O)c2cc3c(=O)n(C)ncn3c2)cc1F |
| 852 s | Cc1ccc(-c2csc(NC(=O)CN3C(=O)c4ccccc4C3=O)n2)o1 |
| 772 s | CC1(C(=O)NCc2ccc(F)cc2)Cn2cnc(C(=O)NCCc3ccccc3)c2C(=O)N1C1CC1 (stereo unspecified) |
| 819 s | Cc1cccc(CNC(=O)C2(C)Cn3cnc(C(=O)NC4CCCCC4)c3C(=O)N2C2CC2)c1 (stereo unspecified) |
| 1200 s | Cc1cc(C)cc(NC(=O)C2CCCN(c3nccnc3Sc3ccccc3)C2)c1 (stereo unspecified) |
| 1190 s | Cc1ccc(S(=O)(=O)N2CCCCCC2)cc1-c1nnc(-c2ccccc2)o1 |
| 691 s | CCC1Oc2ccc(S(=O)(=O)N3CCC(C(=O)N4CCOCC4)CC3)cc2NC1=O (stereo unspecified) |
| 1010 s | O=S(=O)(Cc1ccccc1F)N1CCC(OCCOCc2ccccc2)CC1 |
| 986 s | Cc1ccc(N2CC(c3nc(-c4ccc5c(c4)OCO5)no3)CC2=O)cc1F (stereo unspecified) |
